The values below come from patent US12331054B2, “Perk inhibiting imidazolopyrazine compounds” (HiberCell, Inc., priority 2019, dated 2025).

Assay [1] deals with eIF2α in HEK293-EGFP-eIF2α cells. Put plainly: PERK Cellular Assay (HEK293-EGFP-eIF2α cells, tunicamycin-induced ER stress, TR-FRET). Format: cell-based. The following applies: tunicamycin 2 hours. How it is done:
Stable cell lines were created in HEK293 cells using lentiviral particles harboring an expression vector for GFP-eIF2α. Cells were selected using puromycin and enriched using fluorescence activated cell sorting against GFP. HEK293-EGFP-eIF2α cells were plated at 5000 cells/well in 384-well assay plates and incubated overnight at 37° C., 5% CO2. Inhibitor compounds were added to the wells by Echo acoustic dispensing and incubated for 30 minutes at 37° C., 5% CO2 prior to induction of ER stress by addition of tunicamycin to […] for 2 hours. Cells were lysed and TR-FRET was measured in an EnVision plate reader (PerkinElmer). FRET ratio data was normalized to signal from lysates treated with DMSO vehicle control and plotted as percent inhibition against 10-point; 3-fold dilution series of inhibitors. IC50 values were calculated using 4-parameter logistical fitting in XLFit.
For orientation: Time-resolved FRET reads energy transfer from a long-lived donor to a nearby acceptor.

Assay [2] deals with Recombinant human EIF2AK3 (PERK) catalytic domain (amino acids 536-1116) (Homo sapiens (Human), UniProt Q9NZJ5). Put plainly: PERK In Vitro Activity Assay (isolated), TR-FRET kinase assay. The following applies: isolated PERK enzyme, 1.5 μM ATP, read-out: Biochemical IC50. The source says: PERK In Vitro Activity Assay (isolated):
In vitro Inhibition of PERK Enzyme Activity (isolated) Recombinant human EIF2AK2 (PKR) catalytic domain (amino acids 252-551), EIF2AK3 (PERK) catalytic domain (amino acids 536-1116), GFP-eIF2a substrate, and Terbium-labelled phospho-eIF2a antibody is obtained (Invitrogen, Carlsbad, CA).
Express and purify HIS-SUMO-GCN2 catalytic domain (amino acids 584-1019) from E. coli. Perform TR-FRET kinase assays in the absence or presence of inhibitors in a reaction buffer consisting of 50 mM HEPES, pH 7.5, 10 mM MgCb, 1.0 mM EGTA, and 0.01% Brij-35, and 100-200 nM GFP-eIF2a substrate. […] Add test compound, initiate the reaction by addition of enzyme, and incubate at room temperature for 45 minutes. Stop the reaction by addition of EDTA to a final concentration of 10 mM, add Terbium-labelled phospho-eIF2a antibody at a final concentration of 2 nM, and incubate for 90 minutes. Monitor the resulting fluorescence in an EnVison® Multilabel reader (PerkinElmer, Waltham, MA). Determine TR-FRET ratios and the resulting IC50 values using a 4-parameter nonlinear logistic equation as shown: Y=(A+((B−A)/(1+(C/x)AD)))) where, Y=% specific inhibition, A=Bottom of the curve, B=Top of the curve, C=absolute IC50 (concentration causing 50% inhibition), and D=hill slope.

Sequence of Recombinant human EIF2AK3 (PERK) catalytic domain (amino acids 536-1116) (Q9NZJ5 536-1116): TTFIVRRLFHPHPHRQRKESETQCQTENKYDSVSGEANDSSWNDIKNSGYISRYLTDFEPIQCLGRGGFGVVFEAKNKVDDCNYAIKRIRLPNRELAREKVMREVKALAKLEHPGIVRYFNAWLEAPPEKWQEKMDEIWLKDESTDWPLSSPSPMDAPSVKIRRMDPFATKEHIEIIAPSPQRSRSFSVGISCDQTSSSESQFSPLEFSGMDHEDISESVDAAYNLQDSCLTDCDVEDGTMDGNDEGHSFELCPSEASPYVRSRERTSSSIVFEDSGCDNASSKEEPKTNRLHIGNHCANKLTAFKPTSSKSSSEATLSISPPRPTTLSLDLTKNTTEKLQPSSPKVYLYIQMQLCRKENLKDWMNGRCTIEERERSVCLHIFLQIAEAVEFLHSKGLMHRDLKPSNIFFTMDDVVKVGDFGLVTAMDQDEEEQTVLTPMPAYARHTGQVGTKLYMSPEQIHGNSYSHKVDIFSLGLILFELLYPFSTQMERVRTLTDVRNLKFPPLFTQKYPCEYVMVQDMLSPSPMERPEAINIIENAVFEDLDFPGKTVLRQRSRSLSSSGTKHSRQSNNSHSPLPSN

For the molecule `[2H]C([2H])([2H])c1nc(-c2ccc(NC(=O)C(O)c3cccc(F)c3)cc2C)c2c(N)ncc(Cl)n12` (stereo not shown) [Example 33, N-[4-[8-amino-5-chloro-3-(trideuteriomethyl)imidazo[1,5-a]pyrazin-1-yl]-3-methyl-phenyl]-2-(3-fluorophenyl)-2-hydroxy-acetamide], the values for the IC50 in assay [1] and in assay [2] were 0.051 to 0.1 µM and 0.001 to 0.025 µM, respectively.
For `[2H]C([2H])([2H])c1nc(-c2ccc(NC(=O)C(O)c3cc(F)cc(F)c3)cc2F)c2c(N)nc(C)cn12` (stereo not shown) [Example 102, N-[4-[8-amino-6-methyl-3-(trideuteriomethyl)imidazo[1,5-a]pyrazin-1-yl]-3-fluoro-phenyl]-2-(3,5-difluoro-phenyl)-2-hydroxy-acetamide], in that order: 0.001 to 0.025 µM and 0.001 to 0.025 µM.
For `[2H]C([2H])([2H])c1nc(-c2ccc(NC(=O)C(O)c3cccc(C(F)(F)F)c3)cc2C)c2c(N)ncc(C)n12` (stereo not shown) [Example 16, N-[4-[8-amino-5-methyl-3-(trideuteriomethyl)imidazo[1,5-a]pyrazin-1-yl]-3-methyl-phenyl]-2-hydroxy-2-[3-(trifluoromethyl)phenyl]acetamide], in that order: over 5 µM and 1 to 2 µM.
For `Cc1cc(NC(=O)C(O)c2cccc(F)c2)ccc1-c1nc(C)n2c(C(F)(F)F)cnc(N)c12` (stereo not shown) [Example 27, N-(4-(8-amino-3-methyl-5-(trifluoromethyl)imidazo[1,5-a]pyrazin-1-yl)-3-methylphenyl)-2-(3-fluorophenyl)-2-hydroxyacetamide], in that order: 0.251 to 0.5 µM and 0.001 to 0.025 µM.
For the molecule `[2H]C([2H])([2H])c1nc(-c2cnc(NC(=O)C(O)c3cccc(F)c3)cc2C)c2c(N)nc(C)cn12` (stereo not shown) [Example 178, N-[5-[8-amino-6-methyl-3-(trideuteriomethyl)imidazo[1,5-a]pyrazin-1-yl]-4-methyl-2-pyridyl]-2-(3-fluorophenyl)-2-hydroxy-acetamide], the IC50 (as a rule, the concentration at which inhibition is half-maximal) fell in the range of 4 to 5 µM in assay [1] and 0.251 to 0.5 µM in assay [2].
For `Cc1cnc(N)c2c(-c3ccc(NC(=O)C(O)c4cccc(F)c4)cc3OC(F)(F)F)nc(C)n12` (stereo not shown) [Example 126, N-(4-(8-amino-3,5-dimethyl-imidazo[1,5-a]pyrazin-1-yl)-3-(trifluoromethoxy)phenyl)-2-(3-fluorophenyl)-2-hydroxyacetamide], in that order: 0.501 to 1 µM and 0.101 to 0.25 µM.
For `Cc1cc(NC(=O)C(O)c2cccc(Cl)c2)ccc1-c1nc(C)n2c(C)cnc(N)c12` (stereo not shown) [Example 38, N-(4-(8-amino-3,5-dimethylimidazo [1,5-a]pyrazin-1-yl)-3-methyl-phenyl)-2-(3-chlorophenyl)-2-hydroxyacetamide], in that order: 0.001 to 0.025 µM and 0.001 to 0.025 µM.
For `[2H]C([2H])([2H])c1nc(-c2ccc(NC(=O)C(O)c3cccc(Cl)c3)c(F)c2F)c2c(N)ncc(C(F)(F)F)n12` (stereo not shown) [Example 142, N-[4-[8-amino-3-(trideuteriomethyl)-5-(trifluoromethyl)imidazo[1,5-a]pyrazin-1-yl]-2,3-difluoro-phenyl]-2-(3-chlorophenyl)-2-hydroxy-acetamide], in that order: 0.001 to 0.025 µM and 0.001 to 0.025 µM.
Regarding `[2H]C([2H])([2H])c1nc(-c2ccc(NC(=O)C(O)c3cccc(Cl)c3)c(F)c2F)c2c(N)nc(C)cn12` (stereo not shown) [Example 140, N-[4-[8-amino-6-methyl-3-(trideuteriomethyl)imidazo[1,5-a]pyrazin-1-yl]-2,3-difluoro-phenyl]-2-(3-chlorophenyl)-2-hydroxy-acetamide], the half-inhibitory concentration (IC50) in assay [1] and in assay [2] was 0.001 to 0.025 µM throughout.
For `[2H]C([2H])([2H])c1nc(-c2ccc(NC(=O)C(O)c3cccc(C(F)(F)F)c3)cc2C)c2c(N)ncc(Cl)n12` (stereo not shown) [Example 19, N-[4-[8-amino-5-chloro-3-(trideuteriomethyl)imidazo[1,5-a]pyrazin-1-yl]-3-methyl-phenyl]-2-hydroxy-2-[3-(trifluoromethyl)phenyl]acetamide], the values for the IC50 in assay [1] and in assay [2] were 0.026 to 0.05 µM and 0.001 to 0.025 µM, respectively.
For `[2H]C([2H])([2H])c1nc(-c2ccc(NC(=O)C(O)c3cc(F)cc(C(F)(F)F)c3)cc2F)c2c(N)nc(C)cn12` (stereo not shown) [Example 117, N-[4-[8-amino-6-methyl-3-(trideuteriomethyl)imidazo[1,5-a]pyrazin-1-yl]-3-fluoro-phenyl]-2-[3-fluoro-5-(trifluoromethyl)phenyl]-2-hydroxy-acetamide], in that order: 0.251 to 0.5 µM and 0.051 to 0.1 µM.
For `[2H]C([2H])([2H])c1nc(-c2ccc(NC(=O)C(O)c3cccc(C(F)(F)F)c3)nc2C)c2c(N)ncc(C)n12` (stereo not shown) [Example 174, N-[5-[8-amino-5-methyl-3-(trideuteriomethyl)imidazo[1,5-a]pyrazin-1-yl]-6-methyl-2-pyridyl]-2-hydroxy-2-[3-(trifluoromethyl)phenyl]acetamide], in that order: 0.026 to 0.05 µM and 0.001 to 0.025 µM.
For `[2H]C([2H])([2H])c1nc(-c2ccc(NC(=O)C(O)c3cccc(C(F)(F)F)c3)cc2C)c2c(N)ncc(Cl)n12` (stereo not shown) [Example 18, N-[4-[8-amino-5-chloro-3-(trideuteriomethyl)imidazo[1,5-a]pyrazin-1-yl]-3-methyl-phenyl]-2-hydroxy-2-[3-(trifluoromethyl)phenyl]acetamide], in that order: 0.001 to 0.025 µM and 0.001 to 0.025 µM.
Regarding `[2H]C([2H])([2H])c1nc(-c2cnc(NC(=O)C(O)c3cccc(C(F)(F)F)c3)cc2C)c2c(N)nc(C)cn12` (stereo not shown) [Example 182, N-[5-[8-amino-6-methyl-3-(trideuteriomethyl)imidazo[1,5-a]pyrazin-1-yl]-4-methyl-2-pyridyl]-2-hydroxy-2-[3-(trifluoromethyl)phenyl]acetamide], the values for the half-inhibitory concentration (IC50) in assay [1] and in assay [2] were 0.101 to 0.25 µM and 0.001 to 0.025 µM, respectively.
For `[2H]C([2H])([2H])c1nc(-c2ccc(NC(=O)C(O)c3cccc(F)c3)c(F)c2F)c2c(N)ncc(Cl)n12` (stereo not shown) [Example 137, N-[4-[8-amino-5-chloro-3-(trideuteriomethyl)imidazo[1,5-a]pyrazin-1-yl]-2,3-difluoro-phenyl]-2-(3-fluoro-phenyl)-2-hydroxy-acetamide], the half-maximal inhibitory concentration (IC50) in assay [1] was in the range of 0.251 to 0.5 µM; in assay [2], 0.001 to 0.025 µM.
For `[2H]C([2H])([2H])c1nc(-c2ccc(NC(=O)C(O)c3cccc(C(F)(F)F)c3)cc2C)c2c(N)ncc(C(F)(F)F)n12` (stereo not shown) [Example 20, N-[4-[8-amino-3-(trideuteriomethyl)-5-(trifluoromethyl)imidazo[1,5-a]pyrazin-1-yl]-3-methyl-phenyl]-2-hydroxy-2-[3-(trifluoromethyl)phenyl]acetamide], the concentration for half-maximal inhibition (IC50) in assay [1] was in the range of 0.026 to 0.05 µM; in assay [2], 0.001 to 0.025 µM.
For `[2H]C([2H])([2H])c1nc(-c2ccc(NC(=O)C(O)c3cc(F)cc(C(F)(F)F)c3)cc2F)c2c(N)nc(C)cn12` (stereo not shown) [Example 116, N-[4-[8-amino-6-methyl-3-(trideuteriomethyl)imidazo[1,5-a]pyrazin-1-yl]-3-fluoro-phenyl]-2-[3-fluoro-5-(trifluoromethyl)phenyl]-2-hydroxy-acetamide], in that order: 0.001 to 0.025 µM and 0.001 to 0.025 µM.
For `[2H]C([2H])([2H])c1nc(-c2ccc(NC(=O)C(O)c3cccc(C(F)(F)F)c3)c(F)c2F)c2c(N)nc(C)cn12` (stereo not shown) [Example 150, N-[4-[8-amino-6-methyl-3-(trideuteriomethyl)imidazo[1,5-a]pyrazin-1-yl]-2,3-difluoro-phenyl]-2-hydroxy-2-[3-(trifluoromethyl)phenyl]acetamide], in that order: 0.026 to 0.05 µM and 0.001 to 0.025 µM.
For `[2H]C([2H])([2H])c1nc(-c2ccc(NC(=O)C(O)c3cccc(C(F)(F)F)c3)nc2C)c2c(N)nc(C)cn12` (stereo not shown) [Example 177, N-[5-[8-amino-6-methyl-3-(trideuteriomethyl)imidazo[1,5-a]pyrazin-1-yl]-6-methyl-2-pyridyl]-2-hydroxy-2-[3-(trifluoromethyl)phenyl]acetamide], in that order: 0.501 to 1 µM and 0.101 to 0.25 µM.
As for `[2H]C([2H])([2H])c1nc(-c2ccc(NC(=O)C(O)c3cc(F)cc(F)c3)c(F)c2F)c2c(N)ncc(C)n12` (stereo not shown) [Example 155, N-[4-[8-amino-5-methyl-3-(trideuteriomethyl)imidazo[1,5-a]pyrazin-1-yl]-2,3-difluoro-phenyl]-2-(3,5-difluorophenyl)-2-hydroxy-acetamide], the IC50 in assay [1] is 0.051 to 0.1 µM; in assay [2] it was 0.001 to 0.025 µM.
